Measurements published in patent US6441036B1 (priority 1998, dated 2002).

Legend:
[1] = tested on: mitochondrial β-oxidation; assay: Effect of fatty acid analogues on mitochondrial β-oxidation in rat liver (Example 18); format: in vivo; details: [1-14C]-palmitoyl-L-carnitine as substrate
Experimental: Freshly isolated livers from individual old Zucker rats, were homogenised in ice-cold sucrose buffer (0.25 M sucrose, 10 mM HEPES (pH 7.4) and 2 mM EDTA). Post-nuclear and mitochondrial fractions were prepared using preparative differential centrifugation according to DeDuve et al. (De Duve, C., et al., Biochem. J., 60, 604-617 1955.) Modifications, purity and yield were as described earlier (Garras, A., et al., Biochim. Biophys. Acta, 1255, 154-160 1995.). Acid soluble products were measured in post-nuclear and mitochondrial enriched fractions, using [1-^14C]-palmitoyl-CoA and [1-^14C]-palmitoyl-L-carnitine (Radio-chemical Centre, Amersham, England) as substrates as described earlier (Willumsen, N., et al., J. Lipid Res., 34, 13-22 1993. Carnitine palmitoyltransferase-I and -II activities were measured in the post-nuclear and mitochondrial fractions essentially as described by Bremer (Bremer, J., Biochim. Biophys. Acta, 665, 628-631 1981.) and 3-hydroxy-3-methylglutharyl-CoA synthase was measured according to Clinkenbeard et al. (Clinkenbeard, K. D., et al., J. Biol. Chem, 250, 3108-3116 1975.) in the mitochondrial fractions.
Obese Zucker (fa/fa) rats were given a standard chow either with (n=6) or without (n=5) 0.15% TTA. Following 21 days of treatment, rats were killed by cervical dislocation and the livers were removed. […] Values are expressed as the mean±S.D.

[2] = Lipid lowering effect in normal Wistar rats (Example 4); format: in vivo; details: gavage once daily for 7 days; dose mg/day/kg body weight: TSA 15, EPA 1500, TTA 150
Experimental: Phospholipids were measured by the enzymatic method of bioMérieux, Marcy-l{grave over ( )}Etoile, France, Triacylglycerol by the Technicon Method no. SA4-0324L90, USA and Cholesterol by the Technicon Method no. SA4-0305L90, USA.
Male Wistar rats, weighing 180-200 g at the start of the experiment, were housed individually in metal wire cages in a room maintained at 12 h light-dark cycles and a constant temperature of 20±3° C. The animals were acclimatised for one week under these conditions before the start of the experiments.
TTA, TSA and eicosapentaenoic acid (EPA) were suspended in 0.5% (w/v) carboxymethyl cellulose (CMC). Six animals were used for each treatment, and a 0.5% CMC solution was administrated to the rats as control. After administration of the test compound, the rats were fasted for 12 hours and anaesthetised with haloethan. The EPA and the fatty acid derivatives were administered by gastric intubation (gavage) once daily for 7 days. Blood samples were collected by cardiac puncture, and lipid concentrations in plasma were determined as outlined in the method section.

Salmonella typhimurium = assay: Test for mutagenic activity in Salmonella typhimurium strains; format: cell-based; details: 3-1000 mg/plate (TTA), 2-5000 mg/plate (TSA)
Text: (§1) Tests for mutagenic activity have been performed by Covance Laboratories Limited, England. […] Furthermore, TTA was not mutagenic when tested in mouse lymphoma cells […] L5178Y.

Escherichia coli = assay: Test for mutagenic activity in Escherichia coli strains; format: cell-based; details: 3-1000 mg/plate (TTA), 2-5000 mg/plate (TSA)
Text: as §1

[3] = tested on: mouse lymphoma cells, L5178Y; assay: Mutagenicity test in mouse lymphoma cells L5178Y; format: cell-based; details: concentration 2.5-50 mg/ml
Text: as §1

[4] = tested on: cultured Chinese hamster ovary cells; assay: Chromosomal aberrations in cultured Chinese hamster ovary cells; details: doses tested 12-140 mg/ml
[5] = Hepatic levels of triacylglycerol (Example 17); format: in vivo, Wistar rats; details: fed 6 days, no prefeeding; TTA 150 mg/kg/day, TTP 300 mg/kg/day
Experimental: Male Wistar rats had free access to water and rat maintenance chow. They were fed palmitic acid or fatty acid analogues suspended in 0.5% CMC for 6 days. In some experiments TTA or TTP were fed for 3 days before feeding both for 6 days. At the end of the experiment the rats were fasted overnight, killed, the liver removed and homogenized. Triacylglycerol was measured in the homogenate.

Q: Which “Mitochondrial β-oxidation activity” value [1] does the source give for `CCCCCCCCCCCCCCCC(=O)O` [Palm, palmitic acid] here?
A: Its value is 0.47 ± 0.06 nmol/min/mg protein.

Q: Which results are given for `CC/C=C\C/C=C\C/C=C\C/C=C\C/C=C\CCCC(=O)O` [EPA, eicosapentaenoic acid, reference compound]?
A: Plasma lipids: cholesterol [2]: 18 % reduction of control; Plasma lipids: triglycerides [2]: 20 % reduction of control

Q: What does the source list for `CCCCCCCCCCCCCC[Se]CC(=O)O` [TSA, Tetradecylselenioacetic acid]?
A: Induction of mutations (Salmonella typhimurium): did not induce mutations; Induction of mutations (Escherichia coli): did not induce mutations; Mutagenicity [3]: not to be mutagenic; Chromosomal aberrations [4]: no aberrations were induced; Plasma lipids: cholesterol [2]: 20 % reduction of control; Plasma lipids: triglycerides [2]: 25 % reduction of control

Q: For `CCCCCCCCCCCCCCSCCC(=O)O` [reference compound], which “Hepatic TG (triacylglycerol)” value [5] is on record?
A: The value was 95.4 ± 14.7 µmol/g.
